PMC6017299, “Ent-Clerodane Diterpenes from the Bark of Croton oligandrus Pierre ex Hutch. and Assessment of Their Cytotoxicity against Human Cancer Cell Lines” (Molecules : A Journal of Synthetic Chemistry and Natural …, 2018)
Read-outs that look alike come from different tables or passages of the source.

Legend:
Type in all cases: cell-based
[1] = tested on: PNT2 (human normal prostate epithelium cell line); assay: MTT cell viability assay, PNT2 cells; conditions: 0 to 200 µM, 48 h, noncancerous cells, mean ± SEM (n = 3), read-out: IC50 (50% cell growth inhibition) PNT2
Protocol: (§1) The in vitro activity of the crude extracts, fractions and isolated compounds from C. oligandrus on metabolic cell viability was assessed against A549 (adenocarcinoma human alveolar basal epithelial cell 211 line), MCF7 (human breast adenocarcinoma cell line), PC3 (human prostate cancer cell line) and PNT2 212 (human normal prostate epithelium cell line). The resulting inhibitory activity is termed “cytotoxic activity” throughout the manuscript. The cell lines were grown in RPMI medium supplemented with L-glutamine (2 mM), penicillin (100 U/mL), streptomycin (100 μg/mL) and 10% foetal bovine serum (FBS) and cultured at 37 °C, 5% CO2 and 95% humidity. For experimental use, the cells were seeded into 96-well plates (1.2 × 10^4/well) and incubated for 24 h. Cells were then treated with crude extract (0–250 µg/mL) for 24 h or isolated compounds (0 to 200 µM) for 48 h and the cell viability was measured using the MTT assay. The formazan crystals formed were dissolved in DMSO and optical density was read at 570 nm using a ClarioStar plate reader, Manchester, UK. Three individual wells were assayed per treatment; the assay was repeated three times and cytotoxic activity was determined using the percentage of absorbance compared to the control cells [(absorbance of treated cells/absorbance of untreated cells) × 100]. Doxorubicin was used as the positive control and the IC50 value of each test sample was calculated using the software Graphad Prism 7.02, La Jolla, CA, USA.

[2] = tested on: PC3 (human prostate cancer cell line); assay: MTT cell viability assay, PC3 cells; conditions: 0 to 200 µM, 48 h, mean ± SEM (n = 3), read-out: IC50 (50% cell growth inhibition) PC-3
Protocol: as §1

[3] = tested on: A549 (adenocarcinoma human alveolar basal epithelial cell line); assay: MTT cell viability assay, A549 cells; conditions: 0 to 200 µM, 48 h, mean ± SEM (n = 3), read-out: IC50 (50% cell growth inhibition) A549
Protocol: as §1

[4] = tested on: MCF7 (human breast adenocarcinoma cell line); assay: MTT cell viability assay, MCF7 cells; conditions: 0 to 200 µM, mean ± SEM (n = 3), read-out: IC50 (50% cell growth inhibition) MCF-7
Protocol: (§2) The resulting inhibitory activity is termed “cytotoxic activity” throughout the manuscript. The cell lines were grown in RPMI medium supplemented with L-glutamine (2 mM), penicillin (100 U/mL), streptomycin (100 μg/mL) and 10% foetal bovine serum (FBS) and cultured at 37 °C, 5% CO2 and 95% humidity. For experimental use, the cells were seeded into 96-well plates (1.2 × 10^4/well) and incubated for 24 h. […] The formazan crystals formed were dissolved in DMSO and optical density was read at 570 nm using a ClarioStar plate reader, Manchester, UK. Three individual wells were assayed per treatment; the assay was repeated three times and cytotoxic activity was determined using the percentage of absorbance compared to the control cells [(absorbance of treated cells/absorbance of untreated cells) × 100].

[5] = tested on: A549, MCF7, PC3 and PNT2 cell lines; assay: MTT cell viability assay, statements across the cell line panel; conditions: Homo sapiens, positive control, read-out: IC50 range between the cell lines used
Protocol: as §2

[6] = Homo sapiens, PNT2, isolated compounds
[7] = Homo sapiens, PC-3, isolated compounds
[8] = Homo sapiens, A549, isolated compounds
[9] = Homo sapiens, MCF7, isolated compounds, 48 h

Row | IC50 [2, 7] [µM] | IC50 [3, 8] [µM] | IC50 [4, 9] [µM] | IC50 [5] [µM] | SMILES | IC50 [1, 6] [µM] | IC50 ([3]; isolated compounds) [µM] | IC50 ([4]; Homo sapiens, MCF7, 48 h, isolated compounds) [µM] | IC50 ([1]; isolated compounds) [µM] | IC50 ([2]; isolated compounds) [µM] | IC50 ([4]; isolated compounds, 48 h) [µM]
1 |  |  |  |  | COC(=O)C1=CC(=O)C=C2C1(C(=O)OC)CCC(C)C21CC(c2ccoc2)OC1=O (stereo not drawn) [Compound 2, 12-epi-megalocarpoidolide D] |  | 139 ± 22.1 |  | > 200 | > 200 | 171 ± 51.4
2 | > 200 | 107 ± 27.2 | > 200 |  | COC(=O)C1=CCCC2C1(C(=O)OC)CCC(C)C21CC(c2ccoc2)OC1=O (stereo not drawn) [Compound 5, 12-epi-crotocorylifuran] | > 200 |  |  |  |  | 
3 | > 200 | > 200 | > 200 |  | COc1cc(C=O)ccc1O [Compound 8, vanillin] | > 200 |  |  |  |  | 
4 | 172 ± 39.7 | 137 ± 18.9 | > 200 |  | CC(=O)O[C@H]1CC[C@]2(C)[C@H]3CC[C@]4(C)C(=CC[C@@]5(C(=O)O)CCC(C)(C)C[C@H]54)[C@]3(C)CC[C@H]2C1(C)C [Compound 9, acetyl-aleuritolic acid] | 168 ± 25.3 |  |  |  |  | 
5 | 136 ± 21.1 | > 200 | > 200 |  | C=C(C)[C@@H]1CC[C@]2(C)CC[C@]3(C)[C@H](CC[C@@H]4[C@@]5(C)CC[C@H](O)C(C)(C)[C@@H]5CC[C@]43C)[C@@H]12 [Compound 10, lupeol] | > 200 |  |  |  |  | 
6 | 16.4 ± 2.9 | 1.3 ± 0.3 | 0.7 ± 0.1 | 0.7 to 16.4 | COc1cccc2c1C(=O)c1c(O)c3c(c(O)c1C2=O)C[C@@](O)(C(=O)CO)C[C@@H]3O[C@H]1C[C@H](N)[C@H](O)[C@H](C)O1 [Doxorubicin, reference compound] | 1.5 ± 0.3 |  |  |  |  | 

Row | SMILES | IC50 [2, 7] [µM] | IC50 [3, 8] [µM] | IC50 [4, 9] [µM] | IC50 [5] [µM] | IC50 [1, 6] [µM] | IC50 ([3]; isolated compounds) [µM] | IC50 ([4]; Homo sapiens, MCF7, 48 h, isolated compounds) [µM] | IC50 ([1]; isolated compounds) [µM] | IC50 ([2]; isolated compounds) [µM] | IC50 ([4]; isolated compounds, 48 h) [µM]
7 | COC(=O)C1=CC(=O)C=C2C1(C(=O)OC)CCC(C)C21CC(c2ccoc2)OC1=O (centres unmarked) [Compound 1, megalocarpoidolide D] | > 200 |  |  |  | > 200 | 63.8 ± 13.8 | 136 ± 22.7 |  |  | 
